Results: PMC6713120, “Kinetic and thermodynamic characterisation of HIV-protease inhibitors against E35D↑G↑S mutant in the South African HIV-1 subtype C protease” (Journal of Enzyme Inhibition and Medicinal Chemistry, 2019)
Several values for one entry are separate records, joined by “and”; a condition that tells them apart may be missing. Equal values may be shown once.

Legend:
[1] = molecular target: wild type C-SA HIV protease (Human immunodeficiency virus type 1 group M subtype C, UniProt Q994Q3); experiment: Inhibition of chromogenic substrate hydrolysis by wild type C-SA HIV protease; assay type: biochemical, HIV-1 subtype C; settings: for IC50: wild type C-SA protease, n = 3, read-out: WT IC50; for Ki / ΔG (Gibbs free binding energy): wild type; for Ki: 37 °C, pH 5.0; for ΔG (Gibbs free binding energy): calculated from Ki, ΔG=RTlnKi
Procedure: (§1) Enzymatic activity of the HIV-1 C-SA and mutant (E35D↑G↑S) protease was measured by following the hydrolysis of the HIV-PR chromogenic substrate, Lys-Ala-Arg-Val-Nle-nPhe-Glu-Ala-Nle-NH2 as reported before[13]^,[15]. The substrate resembles the conserved protease cleavage site, KARVL/AEAM[8] between the capsid protein and the […] in the Gag-polyprotein precursor. Hydrolysis of the HIV chromogenic substrate was characterised by the decrease in absorbance at 300 nm. Catalytic properties such as the Km, kcat, and kcat/Km of the proteases were determined. All catalytic activity assays were performed using a Jasco V-630 spectrophotometer (Jasco International co., LTD, Japan).
(§2) This was done by monitoring the rate of chromogenic substrate hydrolysis using 2 µM protease in 50.0 mM sodium acetate, 0.1 M NaCl, pH 5.0, and (0–250 µM) substrate in increasing amounts of inhibitor (0–10 nM).
(§3) The Ki values were estimated using a competitive inhibition equation (Equation 1) according to Williams et al..

[2] = molecular target: T1, E35D↑G↑S mutant HIV-1 subtype C protease (Human immunodeficiency virus type 1 group M subtype C, UniProt Q994Q3, D118E/E93D/I94G/INS93GS); settings: mutant-wild type
Procedure: Quenching experiments were performed according to the method reported by Maseko et al.[15]. Spectrofluorimetry was used to determine structural changes induced in HIV protease by the interaction of the inhibitors with the purified enzymes using Jasco V-630 spectrofluorimeter (Jasco International co., LTD, Japan). The excitation wavelength was fixed at 295 nm, the wavelength at which tryptophan absorbs and the emission wavelength measured was at […]. The change in fluorescence of a solution was monitored over 10 min, as increasing concentrations of inhibitors were added to a reaction mixture of HIV protease in 50 mM sodium acetate, 1 M NaCl, pH 5 in a final volume of […]. All fluorescence quenching experiments were performed at 4 different temperatures (293 K, 298 K, 303 K, 310 K). The following equations are applicable. (1) F0/F=1+KsvQ (2) lnKsv=−(ΔH/RT)+(ΔS/R) where F0 and F are the florescence in the absence and presence of quencher, Ksv is the Stern Volmer constant, Q is the quencher (drug), ΔH is the enthalpy, ΔS is entropy, R is the gas constant and T is the experimental temperature. The equation is developed from Van’t Hoff relationship. (3) ΔG=RTlnKi
Thermodynamic parameters were calculated from the Stern Volmer and Van’t Hoff plots (Figures S3 and S4). From these plots, ΔH and ΔS values for each drug were calculated. ΔG values were calculated from the Ki values from Equation (3).

[3] = molecular target: T1, E35D↑G↑S mutant HIV-1 subtype C protease; experiment: biochemical; settings: for IC50: E35D↑G↑S IC50, mutant E35D↑G↑S, n = 3; for ΔG (Gibbs free binding energy): calculated from Ki, ΔG=RTlnKi; for Ki ratio / reduced activity in comparison to the wildtype: mutant versus wild type; for ΔΔG: mutant-wild type; for log vitality: v = (Ki × Kcat/Km)MUT/(Ki × Kcat/Km)WT, wild type as reference
Procedure: as §1, §2
This is done by introducing the term “vitality” which is a measure of resistance. Vitality, v, is defined as v = (Ki × Kcat/Km)MUT/(Ki × Kcat/Km)WT, and predicts the therapeutic effect of a given protease inhibitor.
as §3

In the case of `CC(C)CN(C[C@@H](O)[C@H](Cc1ccccc1)NC(=O)O[C@H]1CCOC1)S(=O)(=O)c1ccc(N)cc1` [APV, Amprenavir], the IC50 [1] is reported as 0.81 ± 0.04 nM, the ΔΔH [2] is reported as 12.9 ± 0.8 and the “−TΔΔS” value [2] is reported as 12.1 ± 0.2. For the same compound, the IC50 [3] was 4.1 ± 0.05 nM, the “ΔG (Gibbs free binding energy)” value ([3]; mutant E35D↑G↑S) was -13.12 kcal/mol and the “log Ki” value ([3]; mutant E35D↑G↑S, logarithm of Ki in nM, 37 °C, pH 5.0) was “negative”. The Ki ratio [3] was 4 ± 0.1, the “reduced activity in comparison to the wildtype” value [3] was 4 folds and the ΔΔG [3] was 0.80 kcal/mol and 0.80 ± 0.1 kcal/mol. The log vitality [3] was 0.36.
With `COC(=O)N[C@H](C(=O)N[C@@H](Cc1ccccc1)[C@@H](O)CN(Cc1ccc(-c2ccccn2)cc1)NC(=O)[C@@H](NC(=O)OC)C(C)(C)C)C(C)(C)C` [ATV, Atazanavir] the IC50 [1] was 1.07 ± 0.08 nM, the Ki [1] was 0.0776 nM and the “ΔG (Gibbs free binding energy)” value [1] was -14.35 kcal/mol. The ΔΔH [2] was 3.1 ± 0.1, the “−TΔΔS” value [2] was −1.5 ± 0.1 and the Ki [3] was 145 nM. It also gave an IC50 [3] of 685 ± 3 nM, a Ki ratio [3] of 1828 ± 2.0 and a ΔΔG [3] of 4.6 ± 0.2 kcal/mol. For the same compound, the log vitality [3] was “highest vitality value”.
For `CC(C)CN(C[C@@H](O)[C@H](Cc1ccccc1)NC(=O)O[C@H]1CO[C@H]2OCC[C@H]21)S(=O)(=O)c1ccc(N)cc1` [DRV, Darunavir], the IC50 [1] was 1.07 ± 0.04 nM, the ΔΔH [2] was 2.1 ± 0.0 and the “−TΔΔS” value [2] was −1.8 ± 0.1. It also gave an IC50 [3] of 154 ± 2 nM, a Ki ratio [3] of 560 ± 3.0 and a ΔΔG [3] of 3.9 ± 0.5 kcal/mol. For the same compound, the log vitality [3] was “around two”.
For `CC(C)(C)NC(=O)[C@@H]1CN(Cc2cccnc2)CCN1C[C@@H](O)C[C@@H](Cc1ccccc1)C(=O)N[C@H]1c2ccccc2C[C@H]1O` [IDV, Indinavir], the IC50 [1] was 3.44 ± 0.06 nM, the ΔΔH [2] was −0.1 ± 0.0 and the “−TΔΔS” value [2] was 1.8 ± 0.3. It also gave an IC50 [3] of 33.6 ± 1 nM, a Ki ratio [3] of 20 ± 0.5 and a ΔΔG [3] of 1.9 ± 0.6 kcal/mol. It also gave a log vitality [3] of roughly 1.00.
With `Cc1cccc(C)c1OCC(=O)N[C@@H](Cc1ccccc1)[C@@H](O)C[C@H](Cc1ccccc1)NC(=O)[C@H](C(C)C)N1CCCNC1=O` [LPV, Lopinavir] the IC50 [1] was 2.99 ± 0.01 nM, the ΔΔH [2] was −13.1 ± 0.9 and the “−TΔΔS” value [2] was 14.7 ± 0.1. It also gave an IC50 [3] of 51.7 ± 0.8 nM, a Ki ratio [3] of 12 ± 0.1 and a ΔΔG [3] of 1.6 ± 0.3 kcal/mol. For the same compound, the log vitality [3] was roughly 1.00.
For `Cc1c(O)cccc1C(=O)N[C@@H](CSc1ccccc1)[C@H](O)CN1C[C@H]2CCCC[C@H]2C[C@H]1C(=O)NC(C)(C)C` [NFV, Nelfinavir], the IC50 [1] was 1.99 ± 0.05 nM, the ΔΔH [2] was 2.3 ± 0.0 and the “−TΔΔS” value [2] was −1.8 ± 0.0. For the same compound, the Ki [3] was 174 nM, the IC50 [3] was 1401 ± 3 nM and the Ki ratio [3] was 532 ± 2. The ΔΔG [3] was 4.1 ± 0.2 kcal/mol and the log vitality [3] was “around two”.
With `CC(C)c1nc(CN(C)C(=O)N[C@H](C(=O)N[C@@H](Cc2ccccc2)C[C@H](O)[C@H](Cc2ccccc2)NC(=O)OCc2cncs2)C(C)C)cs1` [RTV, Ritonavir] the ΔΔH [2] was 6.8 ± 0.1, the “−TΔΔS” value [2] was 5.8 ± 0.2 and the “ΔG (Gibbs free binding energy)” value ([3]; mutant E35D↑G↑S) was -12.96 kcal/mol. For the same compound, the “reduced activity in comparison to the wildtype” value [3] was 5 folds, the ΔΔG [3] was 0.93 kcal/mol and 0.9 ± 0.1 kcal/mol and the log vitality [3] was 0.30.
In the case of `CC(C)(C)NC(=O)[C@@H]1C[C@@H]2CCCC[C@@H]2CN1C[C@@H](O)[C@H](Cc1ccccc1)NC(=O)[C@H](CC(N)=O)NC(=O)c1ccc2ccccc2n1` [SQV, Saquinavir], the IC50 [1] is reported as 0.77 ± 0.05 nM, the ΔΔH [2] is reported as 2.9 ± 0.1 and the “−TΔΔS” value [2] is reported as 0.4 ± 0.0. The IC50 [3] was 114 ± 1.2 nM, the Ki ratio [3] was 215 ± 2.0 and the ΔΔG [3] was 3.3 ± 0.5 kcal/mol. For the same compound, the log vitality [3] was “around two”.
For `CCC[C@@]1(CCc2ccccc2)CC(O)=C([C@H](CC)c2cccc(NS(=O)(=O)c3ccc(C(F)(F)F)cn3)c2)C(=O)O1` [TPV, Tipranavir], the IC50 [1] was 1.55 ± 0.02 nM, the Ki [1] was 0.513 nM and the “ΔG (Gibbs free binding energy)” value [1] was -13.19 kcal/mol. The ΔΔH [2] was 3.2 ± 0.2, the “−TΔΔS” value [2] was −7.1 ± 0.1 and the IC50 [3] was 203 ± 2.6 nM. The Ki ratio [3] was 292 ± 4.0, the ΔΔG [3] was 3.7 ± 0.1 kcal/mol and the log vitality [3] was “around two”.
